Laboratory results reported in publication PMC5766581, “NF-κB inducing kinase is a therapeutic target for systemic lupus erythematosus” (Nature Communications, 2018).

Tests used:
[1] = tested on: p52 processing in mouse RPTEC; experiment: TWEAK-induced p52 processing western blot in RPTEC; type: cell-based; conditions: murine RPTEC; 3 μM; 4, 8 and 24 h
Method: (§1) p52/p100 and β-actin were monitored by western blot as described previously. […] Mouse and human RPTEC cells were stimulated with recombinant mouse or human TWEAK (100 ng/mL, R&D Systems). Primary B cells were isolated by negative selection (Miltenyi) from either mouse spleen or human whole blood. Human primary B cells were stimulated with either rhCD40L (10 μg/mL) or rhBAFF (400 ng/mL) (R&D Systems). Mouse primary B cells were stimulated with either anti-CD40 (10 μg/mL, BD Biosciences) or rmBAFF (400 ng/mL). […] HeLa cells (ATCC) were stimulated for 8 h with anti-LTβR agonist antibody and cytoplasmic and nuclear extracts were generated using kits purchase from Thermo Scientific and approximately […] of each extract was monitored for p52/p100, phospho-RelA, RelA, or β-Actin, Histone H3, or Lamin B1 controls. Uncropped western blots, as required by journal policies, are provided in Supplementary Fig. 13 and 14.

[2] = tested on: p52 processing in human RPTEC; experiment: TWEAK-induced p52 processing western blot in RPTEC; type: cell-based; conditions: 1 μM, 4, 8 and 24 h
Method: as §1

[3] = tested on: rhCD40L induced ICOSL expression on human B cells; experiment: ICOSL expression on human B cell assay; type: cell-based; conditions: B-cell, ICOSL MFI by FACS, mean ± SD, read-out: CD40-induced ICOSL IC50
Method: Human B cells were isolated from whole blood. B cells were enriched by RosetteSep protocol (Stem Cell Technologies), and then isolated using Human B cell isolation kit II (Miltenyi). […] Mean fluorescent intensity (MFI) of CD40L and BAFF induced ICOSL expression was measured by flow cytometry on cells stained with anti-CD20 and anti-ICOSL, using a FACS Calibur instrument (BD). Plots and IC50 measurements were generated using GraphPad Prism Software.

Hyl = target: T1, Hyl (Homo sapiens, UniProt P42679); experiment: SelectScreen kinase panel; type: biochemical
T1 construct: purchased Invitrogen / ThermoFisher SelectScreen

[4] = tested on: p52 processing in human B cells; experiment: p52 processing western blot in B cells; type: cell-based
Method: (§2) p52/p100 and β-actin were monitored by western blot as described previously. Briefly, p52 processing was detected after 6 or 18 h of stimulation. Mouse and human RPTEC cells were stimulated with recombinant mouse or human TWEAK (100 ng/mL, R&D Systems). Primary B cells were isolated by negative selection (Miltenyi) from either mouse spleen or human whole blood. Human primary B cells were stimulated with either rhCD40L (10 μg/mL) or rhBAFF (400 ng/mL) (R&D Systems). Mouse primary B cells were stimulated with either anti-CD40 (10 μg/mL, BD Biosciences) or rmBAFF (400 ng/mL). After 6 or 18 h, whole cell extracts were generated using RIPA buffer (with protease and phosphatase inhibition), and approximately 10 μg of total protein was monitored for p52/p100 and β-Actin by western blot. HeLa cells (ATCC) were stimulated for 8 h with anti-LTβR agonist antibody and cytoplasmic and nuclear extracts were generated using kits purchase from Thermo Scientific and approximately […] of each extract was monitored for p52/p100, phospho-RelA, RelA, or β-Actin, Histone H3, or Lamin B1 controls. Uncropped western blots, as required by journal policies, are provided in Supplementary Fig. 13 and 14.

[5] = tested on: p52 processing in murine B cells; experiment: p52 processing western blot in B cells; type: cell-based; conditions: mouse B cells
Method: as §2

[6] = tested on: nuclear RelA (canonical NF-κB signaling); experiment: High content nuclear RelA imaging, TNF-stimulated HeLa cells; type: cell-based, human
Method: The HeLa cell line was used to define the cellular selectivity of NIK inhibitors toward inhibition of classical vs. non-classical NF-κB signaling using high content cellular imaging assays. For the nuclear translocation assay p52 (non-canonical NF-κB signaling), HeLa cells were treated with different concentrations of compounds previously diluted in DMSO (final [DMSO] = 0.2% in all wells) in DMEM medium (10% FBS, 2 mM Glutamine) and then stimulated with 300 ng/mL of an anti-lymphotoxin beta receptor antibody for 4.5 h. In the REL-A nuclear translocation assay, HeLa cells were incubated with compounds for 4 h 50 min before stimulating them with 2 ng/mL TNF (R&D Systems) for 10 min. Cells were fixed with 4% paraformaldehyde, permeabilized by adding 0.1% Triton X-100 in phosphate buffered saline, and then are incubated with either 2 μg/mL anti-p52 antibody or 400 ng/mL anti-REL-A (p65) antibody. Finally, the cells are incubated with an Alexa488-labeled secondary antibody (Invitrogen) and DRAQ5 DNA stain (Biostatus). Imaging was carried out using an Opera reader (Perkin Elmer) and data were analyzed with Acapella software (Perkin Elmer). The p52 or REL-A translocation into the nucleus is quantified by the ratio of the nuclear to cytoplasmic signal intensity.

[7] = tested on: IL-12p40 production from mouse splenic DC; experiment: anti-CD40-induced IL-12p40 production from splenic DCs; type: cell-based; conditions: WT mouse splenic DC (not in NIK-deficient); 3 µM or 1 µM, 18 hrs
Method: Supplementary Figure 2. NIK inhibition of IL-12p40 production from splenic DCs Splenic DCs (B220- CD11c +) were sorted from Nik WT/WT,CD11c-CRE + and Nik fl/fl, CD11c- […]
µM) for 18 hrs. IL-12p40 production was measured by ELISA. Data represented as mean ± standard deviation of 3 biological replicates. One-way ANOVA with Tukey’s test for multiple comparisons. *p<0.05, **p<0.01, ***p<0.001; ****p<0.0001; ns, not significant.

T1 sequence (P42679 whole entry): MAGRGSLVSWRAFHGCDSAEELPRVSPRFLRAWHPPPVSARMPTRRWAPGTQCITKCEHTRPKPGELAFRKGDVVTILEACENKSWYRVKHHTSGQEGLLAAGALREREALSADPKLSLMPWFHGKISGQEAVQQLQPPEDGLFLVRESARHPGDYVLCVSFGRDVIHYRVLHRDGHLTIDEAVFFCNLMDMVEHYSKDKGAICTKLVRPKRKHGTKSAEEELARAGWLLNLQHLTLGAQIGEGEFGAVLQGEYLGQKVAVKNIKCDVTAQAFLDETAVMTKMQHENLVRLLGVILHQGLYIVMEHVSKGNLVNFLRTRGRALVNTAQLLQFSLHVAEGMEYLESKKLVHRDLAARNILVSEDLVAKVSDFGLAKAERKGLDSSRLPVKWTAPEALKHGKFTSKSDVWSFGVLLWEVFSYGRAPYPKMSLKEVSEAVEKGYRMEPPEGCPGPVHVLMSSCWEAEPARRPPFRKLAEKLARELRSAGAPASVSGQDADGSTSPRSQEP

COc1cc(C(N)=O)nc(-c2cccc(C#C[C@]3(O)CCN(C)C3=O)c2)c1 [NIK SMI1]
TWEAK-induced p52 processing [1]: significantly reduced | TWEAK-induced p52 processing [2]: significantly reduced | IC50 [3]: 84.6 nM | inhibition at 1 µM (Hyl): 4.5% | BAFF-induced and CD40-induced p52 processing [4]: significantly inhibited | BAFF-induced and CD40-induced p52 processing [5]: significantly inhibited | effect on canonical signaling as measured by TNF alpha-induced nuclear relA levels [6]: no effect | IC50 ([6]; Homo sapiens, TNF induced): > 2000 nM | anti-CD40-induced IL-12p40 production [7]: reduced
